According to ChEMBL document CHEMBL3124912, “Combination of amino acid/dipeptide with nitric oxide donating oleanolic acid derivatives as PepT1 targeting antitumor prodrugs” (J Med Chem, 2014):
In brackets after ≈: the same amount, converted by molar mass. Activity calls are given as the source filed them. The calls are words filed in the database; no cut-off is given here.

Legend:
[1] = system: HCT-116; test: Cytotoxicity against human HCT116 cells after 48 hrs by CCK-8 assay; type: functional, cell-based; conditions: HCT-116, 48 h
[2] = system: A549; test: Cytotoxicity against human A549 cells after 48 hrs by CCK-8 assay; type: functional, cell-based; conditions: A549, 48 h
[3] = system: HepG2; test: Cytotoxicity against human HepG2 cells after 48 hrs by CCK-8 assay; type: functional, cell-based; conditions: HepG2, 48 h
[4] = system: MCF7; test: Cytotoxicity against human MCF7 cells after 48 hrs by CCK-8 assay; type: functional, cell-based; conditions: MCF7, 48 h
[5] = Chemical stability in MES buffer assessed as compound remaining at 37 degC up to 2 hrs by HPLC analysis; type: physicochemical; conditions: read-out: Stability
[6] = system: PepT1; test: Effective permeability in Sprague-Dawley rat single-pass intestinal perfusion model assessed as PepT1-mediated drug transport at 0.1 mM administered in HEPES buffer at pH 7.4 via PVC tubing after 20 to 120 mins by HPLC analysis; type: ADME, organism-based; conditions: other: intestinal perfusion via PVC tubing, read-out: Peff
[7] = Cytotoxicity against human LO2 cells at 0.02 to 10 uM after 48 hrs by CCK-8 assay; type: cell-based; conditions: l02, 48 h
[8] = system: PepT1; test: Effective permeability in Sprague-Dawley rat single-pass intestinal perfusion model assessed as PepT1-mediated drug transport at 0.1 mM administered in MES buffer at pH 6 via PVC tubing after 20 to 120 mins by HPLC analysis; type: ADME, organism-based; conditions: other: intestinal perfusion via PVC tubing, read-out: Peff
[9] = system: A549; test: Ratio of cisplatin IC50 to compound IC50 for human A549 cells; type: functional
[10] = Chemical stability in HEPES buffer assessed as compound remaining at 37 degC up to 2 hrs by HPLC analysis; type: physicochemical; conditions: read-out: Stability
[11] = Aqueous equilibrium solubility of the compound after 24 hrs by HPLC analysis; type: physicochemical; conditions: water (aqueous)
[12] = system: PepT1; test: Effective permeability in Sprague-Dawley rat single-pass intestinal perfusion model assessed as PepT1-mediated drug transport at 0.1 mM administered in MES buffer at pH 6 via PVC tubing after 20 to 120 mins by HPLC analysis in presence of Gly-Sar; type: ADME, organism-based; conditions: other: intestinal perfusion via PVC tubing, pH 6, with Gly-Sar (concentration not stated), read-out: Peff
[13] = system: L02; test: Induction of human LO2 cell growth at 0.02 to 10 uM after 48 hrs by CCK-8 assay; type: functional, cell-based
[14] = Induction of nitric oxide release in PBS at 100 uM at pH 7.4 after 24 hrs by Griess method; conditions: buffer, pH 7.4, 24 h
[15] = Cytotoxicity against human LO2 cells assessed as cell survival at 50 uM after 48 hrs by CCK-8 assay relative to control; type: cell-based, L02; conditions: read-out: Survival
[16] = Induction of nitric oxide release in PBS at 100 uM at pH 7.4 after 24 hrs by Griess method in presence of rat serum; conditions: pH 7.4, 24 h

## CC(C)[C@H](NC(=O)[C@H](C)N)C(=O)OCCOC(=O)[C@]12CCC(C)(C)C[C@H]1C1=CC[C@@H]3[C@@]4(C)CC[C@H](OC(=O)CO[N+](=O)[O-])C(C)(C)[C@@H]4CC[C@@]3(C)[C@]1(C)CC2
[1]
  IC50: 24.7 µM
[2]
  IC50: 9.6 µM
[3]
  IC50: 22.1 µM
[4]
  IC50: 83.2 µM

## CC(C)[C@H](N)C(=O)OCCOC(=O)[C@]12CCC(C)(C)C[C@H]1C1=CC[C@@H]3[C@@]4(C)CC[C@H](OC(=O)CO[N+](=O)[O-])C(C)(C)[C@@H]4CC[C@@]3(C)[C@]1(C)CC2.Cl
[1]
  IC50: 24.9 µM
[5]
  remaining at 2 h: 100%
[6]
  Papp at 100 µM: 20.3 ×10⁻⁶ cm/s
[2]
  IC50: 7.5 µM
[7]
  Activity: Non-toxic
[8]
  Papp at 100 µM: 33.2 ×10⁻⁶ cm/s
[9]
  Ratio IC50: 2
[10]
  remaining at 2 h: 98.5%
[11]
  solubility thermodynamic at 24 h: 18.6 µg/mL
[12]
  Papp at 100 µM: 25.3 ×10⁻⁶ cm/s
[13]
  Activity: Active
[3]
  IC50: 10.7 µM
[14]
  Activity: 6.7%
[15]
  viability at 48 h, 50 µM: 60%
[4]
  IC50: 25.5 µM
[16]
  Activity: Active

## C[C@H](N)C(=O)OCCOC(=O)[C@]12CCC(C)(C)C[C@H]1C1=CC[C@@H]3[C@@]4(C)CC[C@H](OC(=O)CO[N+](=O)[O-])C(C)(C)[C@@H]4CC[C@@]3(C)[C@]1(C)CC2
[1]
  IC50: 32.8 µM
[2]
  IC50: 28.1 µM
[3]
  IC50: 23.2 µM
[4]
  IC50: 48 µM

## CC(C)[C@H](N)C(=O)N[C@H](C(=O)OCCOC(=O)[C@]12CCC(C)(C)C[C@H]1C1=CC[C@@H]3[C@@]4(C)CC[C@H](OC(=O)CO[N+](=O)[O-])C(C)(C)[C@@H]4CC[C@@]3(C)[C@]1(C)CC2)C(C)C.Cl
[1]
  IC50: 15.5 µM
[5]
  remaining at 2 h: 100%
[6]
  Papp at 100 µM: 23.4 ×10⁻⁶ cm/s
[2]
  IC50: 2.4 µM
[7]
  Activity: Non-toxic
[8]
  Papp at 100 µM: 46 ×10⁻⁶ cm/s
[9]
  Ratio IC50: 7
[10]
  remaining at 2 h: 98.2%
[11]
  solubility thermodynamic at 24 h: 22.3 µg/mL
[12]
  Papp at 100 µM: 16.3 ×10⁻⁶ cm/s
[13]
  Activity: Active
[3]
  IC50: 2.8 µM
[14]
  Activity: 9.9%
[15]
  viability at 48 h, 50 µM: 60%
[4]
  IC50: 15 µM
[16]
  Activity: Active

## CC[C@H](C)[C@H](N)C(=O)OCCOC(=O)[C@]12CCC(C)(C)C[C@H]1C1=CC[C@@H]3[C@@]4(C)CC[C@H](OC(=O)CO[N+](=O)[O-])C(C)(C)[C@@H]4CC[C@@]3(C)[C@]1(C)CC2
[1]
  IC50: > 150 µM
[2]
  IC50: 17.7 µM
[3]
  IC50: 16.3 µM
[4]
  IC50: 74 µM

## CC(C)[C@H](N)C(=O)OCCOC(=O)[C@]12CCC(C)(C)C[C@H]1C1=CC[C@@H]3[C@@]4(C)CC[C@H](O)C(C)(C)[C@@H]4CC[C@@]3(C)[C@]1(C)CC2.Cl
[1]
  IC50: > 150 µM
[6]
  Papp at 100 µM: 41.5 ×10⁻⁶ cm/s
[2]
  IC50: 68.1 µM
[11]
  solubility thermodynamic at 24 h: 25.2 µg/mL
[3]
  IC50: 96.7 µM
[4]
  IC50: > 150 µM

## CC1(C)CC[C@]2(C(=O)O)CC[C@]3(C)C(=CC[C@@H]4[C@@]5(C)CC[C@H](O)C(C)(C)[C@@H]5CC[C@]43C)[C@@H]2C1 [OLEANOLIC_ACID]
[1]
  IC50: > 150 µM
[6]
  Papp at 100 µM: 31.7 ×10⁻⁶ cm/s
[2]
  IC50: 81.4 µM
[7]
  Activity: Non-toxic
[8]
  Papp at 100 µM: 31.6 ×10⁻⁶ cm/s
[11]
  solubility thermodynamic at 24 h: 0.012 µg/mL (≈ 0.0263 µM)
[13]
  Activity: Active
[3]
  IC50: 51.4 µM
[4]
  IC50: > 150 µM

## CC(COC(=O)[C@]12CCC(C)(C)C[C@H]1C1=CC[C@@H]3[C@@]4(C)CC[C@H](O)C(C)(C)[C@@H]4CC[C@@]3(C)[C@]1(C)CC2)OC(=O)[C@@H](NC(=O)[C@@H](N)C(C)C)C(C)C (stereo partly drawn)
[1]
  IC50: 133 µM
[2]
  IC50: 64.3 µM
[3]
  IC50: 73.1 µM
[4]
  IC50: > 150 µM
